Measurements taken from patent publication US12478081B2, “Application of aspartic acid derivative in preparing animal feed additive” (ANIPHA TECHNOLOGIES PTY LTD, priority 2018, dated 2025).
Marks after values point to notes of the source that are not given here.

Legend:
weaned piglets = test: Breeding test: production performance of weaned piglets; format: in vivo, Duroc×Landrace×Yorkshire cross-bred weaned piglets; conditions: for ADFI (g/d*each pig) / ADG (g/d*each pig) / FCR: weaned piglets, 45 ppm in basal daily ration, 40 days; for increase of the average daily gain of the test pigs: compared with the control group, not significant
From the text: From 95 litters of 28±2 days old Duroc×Landrace×Yorkshire cross-bred weaned piglets, 360 clinically healthy piglets with similar body weights were selected as test pigs, which were randomly divided into 12 groups, with 3 replications per group and 10 pigs (half of male and female) per replication. The piglets were attracted to the food trough at the age of 7 days, and the hog house for 28-day-old weaned pigs has a cement floor, steel fence, good ventilation, and suitable temperature. The pigpens and utensils were sterilized before the test.
During the test period, the test pigs were free-stall housed in the same pigpen under the same feeding and management conditions, and were free to drink water and eat feed. The hog house was cleaned once a day, and the floor is washed once every three days to maintain clean and hygienic conditions. The test pigs were fed three times a day. The test groups include control and test groups. Group I is the control group, in which only the basal daily ration was fed to the piglets. […] 1000 ppm of a the aspartic acid derivative metal ion salt was added into the basal daily ration for the piglets in the groups VIII-XII, as shown in Table 2. No other antioxidant ingredients or growth promoters were added for the test groups during the entire feeding process. The test period was 40 days.
The test pigs were weighed during 7:00 to 9:00 in the morning of Day 0 and Day 40 after the start of the test. During the test period, the feed intake and health status of the piglets were observed every day, the remaining daily ration was weighed, the feed consumption was recorded, and the average daily feed intake (ADFI, g/d*each pig), the average daily gain (ADG, g/d*each pig), and the feed conversion ratio (FCR) were calculated. Calculation formulas are as follows: […]
(§1) The test data was statistically analyzed using SPSS18 software. First, a one-way analysis of variance (ANOVA) was performed on the data. If the difference between treatments is significant, Duncan's method was used for multiple comparisons, and the significance level was 0.05.

laying hens = test: Breeding test: production performance of laying hens; format: in vivo, Jingbai laying hens; conditions: 158 days; for ADFI / EPR (%) / EW (g): 500 ppm in basal daily ration; for feed-to-egg ratio: Table 4, 500 ppm in basal daily ration
From the text: The test adopted a single-factor random design. 420 147-day-old Jingbai laying hens with similar body weights were selected and randomly divided into 7 treatment groups, with 3 replications per group and 20 Jingbai laying hens (half of male and female) per replication. The poultry houses and utensils were sterilized before the test. During the test period, the Jingbai laying hens were cage cultured in the same laying poultry house under the same feeding and management conditions. The basal daily ration was mainly corn-soybean meal, and no other antioxidant ingredients or growth promoters were added additionally during the entire feeding process. The test groups include a control group and test groups I-VII. The basal daily ration was fed for the control group I only, and 500 ppm of different aspartic acid derivatives were added into the basal daily ration for the test groups II-VII, as shown in Table 3. The pre-feeding period was 10 days, and the test period was 158 days. The test laying hens were free to drink water and eat feed, and were fed twice a day.
Parameter statistics: During the test period, taking each repetition as a unit, the total egg number, the egg production, and the feed intake were recorded every day, and the egg production rate (EPR), the average daily feed intake (ADFI, g/d), the egg weight (EW, g) and the feed-to-egg ratio (FER) of the laying hens during the entire test were calculated.
Calculation formulas are as follows: […]
as §1

broilers = test: Breeding test: production performance of broilers; format: in vivo, yellow-feathered broilers; conditions: for effect on the average daily gain of the test broilers (in words): 300 ppm, compared with the control group; for ADFI (g/d*each broiler) / ADG (g/d*each broiler) / FCR: broilers, 300 ppm in basal daily ration, 20 days
From the text: The test adopted a single-factor random design. 420 1-day-old yellow-feathered broilers with similar body weights and having an average weight of 50 g were selected and randomly divided into 7 treatment groups, with 3 replications per group and 20 yellow-feathered broilers (half of male and female) per replication. The poultry houses and utensils were sterilized before the test. During the test period, the Jingbai laying hens were cage cultured in the same laying henhouse under the same feeding and management conditions. The basal daily ration was mainly corn-soybean meal, and no other antioxidant ingredients or growth promoters were added additionally during the entire feeding process. The test groups include a control group and test groups I-VII. The basal daily ration was fed for the control group I only, and 300 ppm of different aspartic acid derivatives were added into the basal daily ration for the test groups II-VII, as shown in Table 5. The test period was 20 days. The test yellow-feathered broilers were free to drink water and eat feed, and were fed twice a day. Taking each repetition as a unit, the test broilers were weighed at the age of 21 days (where provisioning of feeds was stopped for 12 hours, but provisioning of water was not stopped), the feed consumption of the test broilers were calculated, and the average daily feed intake (ADFI, g/d*each broiler), the average daily gain (ADG, g/d*each broiler) and the feed conversion ratio (FCR) were calculated for the test broilers of each group. Calculation formulas are as follows: […]
as §1

grass carps = test: Use of aspartic acid derivatives in feeds for fish (grass carp breeding test); format: in vivo; conditions: for effect on weight gain of grass carps (in words): 3000 ppm, compared with the control group; for Average final weight (g) / FCR / Weight gain (%): grass carps, 3000 ppm in feed, 8 weeks
Protocol: Test fish: The test fishes used were healthy and lively grass carp fingerlings with uniform size, which were fed in large cages for 4 weeks before being used for formal breeding test. The experimental system was a small floating cage (specification: 1.1×1.1×1.1 m^3), each small floating cage being equipped with an aeration head, providing aeration 24 h a day. Both the small floating cage and the temporary cage were placed in a 3500 m^2 pond of the test field, the depth of the pond was about 1.5 m, and the water of the pond was fully aerated in the bottom of the pond. 560 grass carps that were hungry for 1 day were randomly divided into 7 groups, with 4 replications per group and 20 grass carps per replication. By taking each replication as a unit, all of the grass carps were weighed, and then placed in 28 cages and fed with test feeds containing different test samples at the same content level.
Test feeds: The feeds for the test were self-prepared based on the formulations in Table 6, and different test samples were added at the same content level for different test groups according to Table 7, respectively.
The feed raw materials used were ground by ultrafine grinding and fed into a puffing machine produced by Jiangsu Muyang Group Co., Ltd. to make 3 mm floating puffed feed, where the mold clearing temperature was 130° C., 3% soybean oil was sprayed using an oil spraying equipment, and the obtained feed was sealed and stored in a cool place for later use.
Test management: The test adopted controlled artificial feeding, and the feeding amount was adjusted once a week. The feeding levels for all the groups (based on the initial fish weight) were exactly the same, and the grass carps were fed twice a day (7:30 and 15:00). The total feeding amount was 580 g/replication test group. The test period was 8 weeks. During the test, the water quality was regularly monitored. The water temperature during the whole breeding process was 26.88±3.08° C., DO>5.0 mg O L^−1, pH 7.8, ammonia nitrogen<0.50 mg N L^−1, nitrite nitrogen<0.05 mg N L^−1.
Parameter statistics: During the test, after the provisioning of feeds has been stopped for 1 day, fishes in each cage were weighed as a whole, and the weight gain (WG, %) and the feed conversion ratio (FCR) were calculated. Calculation formulas are as follows:
[formula] [formula] (3) Test Results

Structure (SMILES) | ADFI (g/d*each pig) (weaned piglets) | ADG (g/d*each pig) (weaned piglets) | FCR (weaned piglets) | ADFI (laying hens) [g/day] | EPR (%) (laying hens) | EW (g) (laying hens) | feed-to-egg ratio (laying hens) | effect on the average daily gain of the test broilers (in words) (broilers) | ADFI (g/d*each broiler) (broilers) | ADG (g/d*each broiler) (broilers) | FCR (broilers) | effect on weight gain of grass carps (in words) (grass carps) | Average final weight (g) (grass carps) | FCR (grass carps) | Weight gain (%) (grass carps) | increase of the average daily gain of the test pigs (weaned piglets) [%]
CCOC(=O)CC(NC(N)=O)C(=O)OCC (racemic) [Compound 2, diethyl N-carbamoyl-DL-aspartate] | 374 ± 11^b g/d*each pig | 176 ± 2^d g/d*each pig | 2.13 ± 0.05 | 115.19 ± 3.14 | 86.28 ± 0.20^b % | 55.94 ± 0.37^b g | 2.06 ± 0.04 | the most significant | 40.05 ± 0.81^d g/d*each broiler | 16.81 ± 0.68^b g/d*each broiler | 2.39 ± 0.05^b | significant improvement effect | 772.0 ± 6.3^b g | 1.650 ± 0.008^b | 83.74 ± 1.53^b % | –
NCCCC(=O)NC(CC(=O)O)C(=O)O (racemic) [Compound 9, N-(4-aminobutyryl)-DL-aspartic acid] | 311 ± 18^a g/d*each pig | 146 ± 4^abc g/d*each pig | 2.13 ± 0.06 | 113.64 ± 2.43 | 86.09 ± 0.18^b % | 55.44 ± 0.37^b g | 2.05 ± 0.04 | – | 37.92 ± 0.53^c g/d*each broiler | 15.84 ± 0.10^b g/d*each broiler | 2.39 ± 0.04^b | – | 781.8 ± 4.4^b g | 1.662 ± 0.008^b | 80.76 ± 1.52% | 8.1
NC(=O)NC(CC(=O)O)C(=O)O (racemic) [Compound 1, N-carbamoyl-DL-aspartic acid] | 315 ± 14^a g/d*each pig | 145 ± 10^abc g/d*each pig | 2.18 ± 0.05 | 113.44 ± 1.55 | 85.80 ± 0.14^b % | 55.49 ± 0.38^b g | 2.04 ± 0.02 | the most significant | 38.83 ± 0.53 g/d*each broiler | 16.59 ± 0.14^b g/d*each broiler | 2.34 ± 0.03^b | – | 774.5 ± 4.8^b g | 1.650 ± 0.011^b | 83.19 ± 1.41^b % | 7.0
NCC(=O)NC(CC(=O)O)C(=O)O (racemic) [Compound 8, N-glycyl-DL-aspartic acid] | 305 ± 12^a g/d*each pig | 142 ± 1^ab g/d*each pig | 2.15 ± 0.07 | 113.01 ± 2.31 | 84.86 ± 0.24^c % | 54.98 ± 0.39^a g | 2.06 ± 0.03 | – | 36.05 ± 0.83^b g/d*each broiler | 14.48 ± 0.24^b g/d*each broiler | 2.49 ± 0.03^ab | significant improvement effect | 778.2 ± 4.3^b g | 1.671 ± 0.008^b | 80.62 ± 1.46% | 5.2
NCCCCCCCCCC(=O)NC(CC(=O)O)C(=O)O (racemic) [Compound 10, N-(10-aminodecanoyl)-DL-aspartic acid] | 321 ± 7^a g/d*each pig | 150 ± 1^bc g/d*each pig | 2.14 ± 0.06 | 119.31 ± 1.84 | 85.24 ± 0.18^c % | 57.45 ± 0.47^c g | 2.08 ± 0.03 | – | 34.82 ± 0.64^a g/d*each broiler | 14.40 ± 0.15^b g/d*each broiler | 2.42 ± 0.04^b | – | 781.0 ± 5.1^b g | 1.653 ± 0.009^b | 81.58 ± 0.96% | –
NCCCCCCCCCCCCCC(=O)NC(CC(=O)O)C(=O)O (racemic) [Compound 11, N-(14-aminomyristoyl)-DL-aspartic acid] | 322 ± 16^a g/d*each pig | 150 ± 4^bc g/d*each pig | 2.14 ± 0.05 | 115.13 ± 2.91 | 85.24 ± 0.17^c % | 55.45 ± 0.35^b g | 2.08 ± 0.04 | – | 36.70 ± 0.54^ac g/d*each broiler | 15.02 ± 0.13^b g/d*each broiler | 2.44 ± 0.04^b | – | 769.2 ± 4.5^ab g | 1.671 ± 0.008^b | 82.32 ± 1.24% | –
